Data on twelve molecules can be found in US5358959A, “Methods for treating arteriosclerosis” (President and Fellows of Harvard University, priority 1993, dated 1994).

Where two headings read alike, the source gives them in different places.

Assay [1] addresses T1, Ca^++ activated K channel (Homo sapiens, UniProt O15554).
T1 construct: endogenous in cells; host or cells: human erythrocytes (washed red blood cells from heparinized blood)
The assay can be described thus: Inhibition of the Ca++ activated K channel of human erythrocytes (86Rb influx, K efflux). The format is cell-based. The following applies: for inhibition of Ca++ activated 86Rb influx by other antimycotics and related compounds / order of inhibitory potency, Ca++ activated 86Rb influx: human erythrocytes, FIG. 4. The protocol:
Preparation of Human Red Blood Cells: Blood is collected in heparinized tubes and centrifuged in a Sorvall centrifuge (RB 5B, Du Pont Instruments,Newtown, Conn.) at 5° C. for 10 minutes at 3000 g. Plasma and buffy coat are carefully removed and the cells washed four times with a washing solution containing 150 mM choline chloride (Sigma Co), 1 mM MgC12 (Sigma Co), 10 mM Tris-MOPS (Sigma, Ca), pH 7.4 at 4° C.(CWS). An aliquot of cells is then suspended in an approximately equal volume of CWS, and from this original cell suspension hematocrit (Hct) and hemoglobin (optical density at 540 nm) are determined.
Methods to Test Inhibitors of the Ca^++ Activated K: To test inhibitors of the Ca^++ activated K channel, the channel is activated using the calcium ionophore A23187 (Chalbiochem).
By Atomic Absorption Spectrometry: Washed human erythrocyte are suspended at an hematocrit =1% in CWS containing 0.150 mM CaCl2 (Sigma Co) Aliquots of 1 ml are removed at 0, 3 and 5 minutes, layered on top of 0.3 ml of the oil n-butyl phthalate (Fair Lane, N.J.) placed in an Eppendorf microtube (Fisher) and then centrifuged in a micro centrifuge for 20 seconds. At time 5.30 minutes, ionophore A23187 (1 μM final concentration) is added and samples removed and spin down through phthalate at times 6, 7, 8 and 9 minutes. The supernatant on top of the oil layer is removed and its K+ concentration is measured by atomic absorption spectrometry using a Perking Elmer model 5000 spectrometer (Perkin Elmer Corp., Norwolk, Conn.). The efflux of K+ (mmol/1 cells/h) in the absence and presence of the inhibitor is calculated from the slope of the curves relating the K+ concentration in the supernatants (mmol/1 cells) vs. time (min.).
By radioisotopic measurement of ^86 Rb influx. The incubation medium is the same but contains 2 mM KCl and 1 μCi/ml of the radioactive tracer ^86 Rb. After spinning the samples through the phthalate layer, the tubes are rapidly frozen (-80° C.) by immersion in methanol-dry ice, the tips of the tubes containing the packed red cells cut, and counted in a Packard Gamma Counter.

Assay [2] concerns vascular smooth muscle cells. The experiment in a line: Proliferation of vascular smooth muscle cells (general statement). The following applies: for inhibition of proliferation of vascular smooth muscle cells: specific inhibitors of the Ca++ activated potassium channel. The format is cell-based.
In the next assay the test system is endothelial cells. The assay can be described thus: Proliferation of endothelial cells (general statement). The format is cell-based. The following applies: for inhibition of proliferation of endothelial cells: specific inhibitors of the Ca++ activated potassium channel.
For assay [3], the system named is Rat vascular smooth muscle cells. The experiment in a line: cells. The format is cell-based. The following applies: for inhibition of DNA synthesis by other inhibitors of the Ca++ activated K channel: bFGF-stimulated. As to the method:
(§1) DNA synthesis assessed by the uptake of [3H]thymidine: Cells are grown in either 48 or 96 wells plates (Costar, Cambridge, Mass.) at 10^4 and 0.8 10^3 cells per well, respectively, and grown in Dubelcco's modified Eagle's medium (DME, Gibco, Grand Island, N.Y.) supplemented with 10% heat-inactivated calf serum; they are kept at 37° C. in 5% CO2. When they reach confluence, usually between 3 and 4 days, the medium is replaced with DME 0.5% serum to make them quiescent, and mitogenesis assays are performed 24 hours later.
(§2) Quiescent cells are exposed to a mitogenic stimulus, such as 10% serum, PDGF (Sigma Co. St. Louis, Mo.), bFGF (Upstate Biotechnologies, Lake Placid, N.Y.), or other appropriate mitogen according to the cell line, and 3 hours 1 later μCi/ml of [3H]thymidine (Dupont, Billerica, Mass.) is added to the wells, and the cells maintained at 37° C./5% CO2 for additional 21 hours. Then the cells are washed 3 times with DME medium and the acid-precipitable radioactivity is extracted with cold 10% TCA (Sigma, Co). After neutralization with 0.3N NaOH (Sigma Co.), aliquots are counted in a Packard Tri-Carb Scintillation counter (Packard Instrument, Downer's Grove, Ill.).
Rat vascular smooth muscle cells (murine cell line): Quiescent cells were stimulated with purified growth factors (PDGF and bFGF, […]) and synthesis of DNA was assessed by the incorporation of [3H]thymidine measured 24 hours later.
Cells were stimulated using […] bFGF. […] (FIG. 2)
Other antimycotics were tested for their inhibition of bFGF-stimulated DNA synthesis in rat vascular smooth muscle cells.

Assay [4] has as its system Bovine endothelial (BAEC). The assay can be described thus: Cell growth (flask surface covered by the cell monolayer), bovine endothelial cells. The following applies: CLT 10 μM; 48 hs; DME 10% calf serum; control 90±2%. The format is cell-based. As to the method:
(§3) Measurement of cell density in culture plates: Cells of a specific test cell line are seeded at precisely the same low density in culture plates and incubated for approximately 12 hours in DME 10% serum, or other culture medium depending on the cell line tested. […] Alternatively, the cells can be detached from the plate by incubation with trypsin (Sigma, Co.) […] in ethylene diaminotetraacetic acid (ECTA; Sigma, Co); then the cells are counted in an hemocytometer chamber (Fisher, Pittsburgh, Pa.).
(§4) After 48 hs cell growth was assessed by optic miscroscopy calculating the surface of the culture flask covered by the cell monolayer.

Another assay relates to Swiss 3T3. The experiment in a line: Proliferative response of quiescent 3T3 cells to conditioned media of MAC treated endothelial cells. The format is cell-based, murine. The following applies: 10 μM CLT; FIG. 5. The protocol:
(§5) When endothelial cells (EC) in culture (both BAEC and HUVEC) are treated with terminal complement components to form the MAC (membrane attack complex of complement), they release into the culture medium a potent mitogenic activity that stimulates the proliferation of quiescent cells used as indicators of the mitogens. Both, quiescent Swiss 3T3 and vascular smooth muscle cells are stimulated by the mitogens released form EC in response to the MAC (FIG. 5; Halperin et al. unpublished observation). Moreover, immunoprecipitation with specific antibodies has documented that both PDGF and bFGF released from the EC contribute in approximately equal proportion to the mitogenic activity induced by the MAC (data not shown).

Assay [5] relates to human umbilical vein (HUVEC). The experiment in a line: Cell growth (flask surface covered by the cell monolayer), human umbilical vein cells. The format is cell-based. Particulars: CLT 10 μM; 48 hs; DME 10% fetal calf serum; control 90±2%. The protocol:
as §3, §4

Another assay has as its system Swiss 3T3 cells. The experiment in a line: DNA synthesis ([3H]thymidine incorporation) in normal fibroblasts. The format is cell-based, murine. The protocol: as §1, §2
Swiss 3T3 cells (murine fibroblast cell line): Quiescent cells were stimulated with purified growth factors (PDGF and bFGF, […]) and synthesis of DNA was assessed by the incorporation of [3H]thymidine measured 24 hours later.
Background: Uptake of a labelled nucleoside into DNA is a usual measure of proliferation.

For assay [6], the system named is vascular smooth muscle cells. The experiment in a line: Proliferative response of vascular smooth muscle cells to conditioned media of MAC treated endothelial cells. The format is cell-based. The following applies: 10 μM CLT; FIG. 5. As to the method: as §5
For another assay, the system named is cell proliferation. The assay can be described thus: Cell proliferation with inhibitors of other transport systems (general statement). The format is cell-based. Particulars: inhibitors of other transport systems activated by mitogens.
Assay [7] deals with testicular and adrenal synthesis of steroid hormones. Particulars: cited from earlier work.
[8] abbreviates: 60 μmol A23187/L cell and 100 μM CaCl2.

With `Cc1ncc([N+](=O)[O-])n1CCO` [metronidazole], the “inhibition of Ca++ activated 86Rb influx by other antimycotics and related compounds” value in assay [1] was “only marginal”.
Consider `Cc1ncc([N+](=O)[O-])n1CC(O)CCl` (centres unmarked) [ornidazole], for which the “inhibition of Ca++ activated 86Rb influx by other antimycotics and related compounds” value in [1] is reported as “no inhibition”.
Regarding “kaliotoxin: specific inhibitors of the Ca^++ activated potassium channel”, the “inhibition of proliferation of vascular smooth muscle cells” value in assay [2] is given as “do not inhibit proliferation”. Besides, the “inhibition of proliferation of endothelial cells” value with endothelial cells was “do not inhibit proliferation”. In addition, the “inhibition of DNA synthesis by other inhibitors of the Ca++ activated K channel” value in assay [3] (FIG. 3) is reported as “failed to inhibit DNA synthesis”.
Take Charybdotoxin: the “inhibition of proliferation of vascular smooth muscle cells” value in assay [2] is “do not inhibit proliferation”. Moreover, the “inhibition of proliferation of endothelial cells” value in the assay on endothelial cells is listed as “do not inhibit proliferation”. Also, the “inhibition of DNA synthesis by other inhibitors of the Ca++ activated K channel” value in assay [3] (FIG. 3) is “failed to inhibit DNA synthesis”.
In general, inhibition refers to the change of the read-out against control, counted positive when it falls. For `Clc1ccccc1C(c1ccccc1)(c1ccccc1)n1ccnc1` [CLT, clotrimazole], the “flask surface covered by cells” value in assay [4] is listed as “less than 10%”. Also, in the assay with Swiss 3T3, the “inhibition of proliferative response to mitogens released from EC by MAC” value was “completely inhibited”. Moreover, the “flask surface covered by cells” value in assay [5] is listed as “less than 10%”. The “inhibition of PDGF stimulated DNA synthesis” value in the assay on Swiss 3T3 cells (10 μM CLT, PDGF, 5 μM, 24 hours) is “completely inhibited”. In the assay with Swiss 3T3 cells (10 μM CLT, bFGF, 5 μM, 24 hours), the “inhibition of bFGF stimulated DNA synthesis” value is “completely inhibited”. Further, in the assay on Swiss 3T3 cells (removing CLT and re-stimulating with the growth factor), the “reversibility of the inhibition of DNA synthesis (toxic, non-specific effect)” value was “reversed by removing CLT”. For the same molecule, in assay [3], the “dose response of inhibition of DNA synthesis” value is “Inhibition was dose dependent”, the “inhibition of DNA synthesis” value is “complete inhibition”, the “inhibition of PDGF stimulated DNA synthesis” value was “completely inhibited” and the “inhibition of bFGF stimulated DNA synthesis” value is “completely inhibited”. Also, in assay [3], the “order of inhibitory potency, bFGF-stimulated DNA synthesis” value is given as “CLT more potent than ECZ” and the “reversibility of the inhibition of DNA synthesis (toxic, non-specific effect)” value is “reversed by removing CLT”. Besides, in assay [3] (10 µM), the “inhibition of bFGF-stimulated DNA synthesis” value is reported as “inhibited DNA synthesis”. For the same molecule, the inhibition at 1 µM in [3] (Rattus norvegicus, read-out: inhibition of DNA synthesis) was determined as 45%. Also, the “inhibition of proliferative response to mitogens released from EC by MAC” value in [6] was “completely inhibited”. In [1] (setting [8]), the “inhibition of Ca++ activated 86Rb influx” value is given as “markedly inhibited” and the “inhibition of Ca++ activated K efflux” value is on record as “markedly inhibited”. Also, the “order of inhibitory potency, Ca++ activated 86Rb influx” value in [1] is on record as “clotrimazole more than miconazole”.
Take `N=C(N)NC(=O)c1nc(Cl)c(N)nc1N` [amiloride]: the “inhibition of cell proliferation” value in the assay on cell proliferation is “do not inhibit cell proliferation”.
Turning to `OC(Cn1cncn1)(Cn1cncn1)c1ccc(F)cc1F` [fluconazole], the “inhibition of Ca++ activated 86Rb influx by other antimycotics and related compounds” value in [1] is reported as “no inhibition”.
Regarding `Clc1ccc(COC(Cn2ccnc2)c2ccc(Cl)cc2Cl)cc1` (centres unmarked) [ECZ, econazole], the “order of inhibitory potency, bFGF-stimulated DNA synthesis” value in assay [3] (10 μM, FIG. 3) is listed as “ECZ more potent than MCZ”. Also, the “inhibition of bFGF-stimulated DNA synthesis” value in [3] (antimycotics at 10 μM, FIG. 3) is “inhibited DNA synthesis”. The “order of inhibitory potency, Ca++ activated 86Rb influx” value in [1] is “both of these were more than econazole”.
For `CCS(=O)(=O)CCn1c([N+](=O)[O-])cnc1C` [tinidazole], the “inhibition of Ca++ activated 86Rb influx by other antimycotics and related compounds” value in assay [1] is “no inhibition”.
In the case of `CC(=O)N1CCN(c2ccc(OCC3COC(Cn4ccnc4)(c4ccc(Cl)cc4Cl)O3)cc2)CC1` (centres unmarked) [Ketoconazole, ketoconazole], the “treatment of prostate cancer” value in assay [7] (by blocking steroid synthesis) is “effective in treating some prostate cancers”. Further, in [7] (hormonal adjuvant for prostate cancer treatment), the plasma testosterone result is “reduces plasma testosterone to castration levels”. Further, the “testicular and adrenal synthesis of steroid hormones, including testosterone” value in [7] (in high doses) is on record as “appears to inhibit”. For the same molecule, the “usefulness for inhibiting smooth muscle cell proliferation” value in assay [2] (ketoconazole, no data given) is reported as “not useful”. In the assay on endothelial cells (ketoconazole, no data given), the “usefulness for inhibiting endothelial cell proliferation” value is given as “not useful”.
For the molecule `C[C@@H]1O[C@@H](O[C@H]2C[C@@H](O)[C@]3(CO)[C@H]4[C@H](O)C[C@]5(C)[C@@H](C6=CC(=O)OC6)CC[C@]5(O)[C@@H]4CC[C@]3(O)C2)[C@H](O)[C@H](O)[C@H]1O` [ouabain], the “inhibition of cell proliferation” value with cell proliferation is listed as “do not inhibit cell proliferation”.
For the molecule `Clc1ccc(COC(Cn2ccnc2)c2ccc(Cl)cc2Cl)c(Cl)c1` (centres unmarked) [MCZ, miconazole], in assay [3] (10 μM, FIG. 3), the “order of inhibitory potency, bFGF-stimulated DNA synthesis” value is listed as “ECZ more potent than MCZ”. The “inhibition of bFGF-stimulated DNA synthesis” value in [3] (antimycotics at 10 μM, FIG. 3) is given as “inhibited DNA synthesis”. For the same molecule, the “order of inhibitory potency, Ca++ activated 86Rb influx” value in assay [1] was “both of these were more than econazole”.
